Read-outs that look alike come from different tables or passages of the source.
Assays:
[1] = tested on: NIH 3T3 mouse fibroblast cells; test: Mitogen-induced cell proliferation; type: cell-based; conditions: for inhibition at 10 µM: NIH3T3, read-out: Mitogen-induced cell proliferation % Inhibition
Description: Other cell lines, e.g., cancer cells, endothelial cells and fibroblasts, as well as many others, may be used in the cell proliferation assay. Selection of a particular cell line will depend in part on the desired application, and is well within the capabilities of an ordinarily skilled artisan.

Gardos channel = Gardos channel (Homo sapiens, UniProt O15554); type: binding
Sequence of Gardos channel (O15554 whole entry): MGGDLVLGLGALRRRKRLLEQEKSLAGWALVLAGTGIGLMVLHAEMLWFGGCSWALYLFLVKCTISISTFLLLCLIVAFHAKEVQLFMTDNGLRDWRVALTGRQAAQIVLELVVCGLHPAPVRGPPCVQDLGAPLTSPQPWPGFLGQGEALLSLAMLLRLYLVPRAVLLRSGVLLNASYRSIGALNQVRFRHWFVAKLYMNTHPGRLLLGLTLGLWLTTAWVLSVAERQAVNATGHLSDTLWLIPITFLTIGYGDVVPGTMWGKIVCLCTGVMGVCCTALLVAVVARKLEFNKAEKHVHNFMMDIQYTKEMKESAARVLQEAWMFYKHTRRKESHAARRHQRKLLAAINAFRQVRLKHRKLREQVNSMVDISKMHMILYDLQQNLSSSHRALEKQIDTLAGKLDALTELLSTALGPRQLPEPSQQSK

[2] = biological target: T1, red cell calcium-activated potassium transport (Homo sapiens, UniProt O15554); test: Red cell Ca2+-activated 86Rb influx inhibition after oral Clotrimazole; type: in vivo; conditions: for Ca2+-activated 86Rb influx inhibition %: Subject A
T1 construct: endogenous in cells; host or cells: red cells of two normal human subjects
T1 sequence (O15554 whole entry): as above
Protocol: Two subjects, […] (A, 72 kg) and […] (D, 56 kg), ingested one 500 mg CLT tablet every twelve hours for six days, corresponding to a daily CLT dose of 14 and 18 mg/kg, respectively.

red cell Gardos channel = red cell Gardos channel (Homo sapiens, UniProt O15554); test: cell-based
Sequence of red cell Gardos channel (O15554 whole entry): as above
Protocol: CLT and metabolite B (Compound 6) were incubated with a red cell suspension at 20% Hct.

[3] = tested on: MM-RU human melanoma cells; test: SCID mice inoculated with MM-RU human melanoma cells, lung metastases; type: in vivo; conditions: 120 mg/Kg subcutaneous daily for 10 weeks
Protocol: Mice with severe combined immunodeficiency disease (SCID) were inoculated via the lateral tail vein with approximately 2.5×10^6 MM-RU human melanoma cells, a cell line that produces metastases only in the lungs (Byers et al., 1993, Melanoma Res. 3:247-253). Starting on the day of inoculation, subcutaneous injections of either vehicle (control group, n=9) or CLT (120 mg/Kg; treatment group, n=10) was administered daily for a period of 10 weeks. At the end of the 10 week treatment period, the mice were sacrificed and examined for metastases.

[4] = biological target: T1, red cell calcium-activated potassium transport; test: Red cell Ca2+-activated 86Rb influx inhibition after oral Clotrimazole; type: in vivo; conditions: Subject B
[5] = biological target: Gardos channel of erythrocytes (Homo sapiens, UniProt O15554); test: cell-based
Sequence of Gardos channel of erythrocytes (O15554 whole entry): as above

clinical = type: in vivo; conditions: human, plasma, read-out: Levels Plasma; for concentration at 6 day of CLT dosing: CLT day 6; for concentration at 10 day (wash-out): Wash-out day 10; for concentration at 13 day (wash-out): Wash-out day 13; for concentration at 20 day (wash-out): Wash-out day 20
[6] = tested on: Human melanoma cells (MM-RU); test: [3H]thymidine uptake in MM-RU cells; type: cell-based; conditions: 10 μM
Protocol: (§1) Human melanoma cells (MM-RU) and colon adenocarcinoma cells (HT29) were cultured in the presence and absence of 10 μM CLT metabolite B (Compound 6) as described in Benzaquen et al., 1995, Nature Medicine 1:534-540 and the level of DNA synthesis determined by measuring [^3H]thymidine uptake.

[7] = tested on: colon adenocarcinoma cells (HT29); test: [3H]thymidine uptake in HT29 cells; type: cell-based, human; conditions: 10 μM
Protocol: as §1

[8] = tested on: hepatic microsomal cytochrome P450; conditions: rats; Matsuura et al., 1991; cited from earlier work
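Throughout, for Levels Plasma: oral tablet given every 12 h for six days, about 14 mg/kg per day for this subject, with levels then followed in plasma.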

Structure (SMILES): Clc1ccccc1C(c1ccccc1)(c1ccccc1)n1ccnc1 [Clotrimazole, reference compound]
- inhibition at 10 µM [1]: 93%
- 125I-ChTX Binding (Gardos channel): 1.000
- Displacement (%) (Gardos channel): 41.6%
- Ca2+-activated 86Rb influx inhibition % ([2]; CLT day 3): 74 ± 5%
- Ca2+-activated 86Rb influx inhibition % ([2]; CLT day 6): 73 ± 4%
- Ca2+-activated 86Rb influx inhibition % ([2]; Wash-out day 6): 71 ± 7%
- Ca2+-activated 86Rb influx inhibition % ([2]; Wash-out day 10): 75 ± 11%
- Ca2+-activated 86Rb influx inhibition % ([2]; Wash-out day 13): 58 ± 9%
- Ca2+-activated 86Rb influx inhibition % ([2]; Wash-out day 20): 0 ± 10%
- persistence of inhibition of calcium-activated potassium transport after the drugs were discontinued ([2]; two subjects, oral CLT for six days): at least 7 days
- concentration at which inhibition of K+ transport reached maximal levels (red cell Gardos channel): 5 µM
- % control (red cell Gardos channel; 1 nM): 100.3%
- flux (red cell Gardos channel; 1 nM): 1.155
- inhibition at 0.001 µM (red cell Gardos channel; 1 nM): -0.3%
- % control (red cell Gardos channel; 10 nM): 97.6%
- flux (red cell Gardos channel; 10 nM): 1.124
- inhibition at 0.01 µM (red cell Gardos channel; 10 nM): 2.4%
- % control (red cell Gardos channel; 100 nM): 77.4%
- flux (red cell Gardos channel; 100 nM): 0.892
- inhibition at 0.1 µM (red cell Gardos channel; 100 nM): 22.6%
- % control (red cell Gardos channel; 500 nM): 45.0%
- flux (red cell Gardos channel; 500 nM): 0.518
- inhibition at 0.5 µM (red cell Gardos channel; 500 nM): > 50%
- % control (red cell Gardos channel; 1 μM): 21.5%
- flux (red cell Gardos channel; 1 μM): 0.248
- inhibition at 1 µM (red cell Gardos channel; 1 μM): 78.5%
- % control (red cell Gardos channel; 5 μM): 3.3%
- flux (red cell Gardos channel; 5 μM): 0.038
- inhibition at 5 µM (red cell Gardos channel; 5 μM): 96.7%
- % control (red cell Gardos channel; 10 μM): 3.7%
- flux (red cell Gardos channel; 10 μM): 0.043
- inhibition at 10 µM (red cell Gardos channel; 10 μM): 96.3%
- number of microscopic metastases ([3]; SCID mice): 7±2
- number of pleural metastases ([3]; SCID mice): 2±1
- systemic metastatic disease or toxicity ([3]; SCID mice): did not show any evidence of systemic metastatic disease or toxicity
- weight gain ([3]; SCID mice): gained weight in comparable amounts
- treated animals free of macroscopic metastases ([3]; n=10): half
- treated animals without evidence of microscopic metastases ([3]; n=10): two
- Ca2+-activated 86Rb influx inhibition % ([4]; CLT day 3): 80 ± 28%
- Ca2+-activated 86Rb influx inhibition % ([4]; CLT day 6): 83 ± 7%
- Ca2+-activated 86Rb influx inhibition % ([4]; Wash-out day 8): 79 ± 21%
- Ca2+-activated 86Rb influx inhibition % ([4]; Wash-out day 10): 82 ± 4%
- Ca2+-activated 86Rb influx inhibition % ([4]; Wash-out day 13): 37 ± 30%
- Ca2+-activated 86Rb influx inhibition % ([4]; Wash-out day 20): 0 ± 13%

Structure (SMILES): OC(c1ccccc1)(c1ccccc1)c1ccccc1Cl [Compound 6, 2-chlorophenyl-diphenylmethanol]
- inhibition at 10 µM [1]: 31%
- IC50 ([1]; NIH3T3, read-out: Mitogen-induced cell proliferation IC50): 2100 nM
- IC50 [5]: 961 nM
- inhibition at 10 µM ([5]; read-out: Gardos Channel % Inhibition): 98%
- 125I-ChTX Binding (Gardos channel; 1 nM, red cells): 1.403
- 125I-ChTX Binding (Gardos channel; 10 nM, red cells): 1.399
- 125I-ChTX Binding (Gardos channel; 100 nM, red cells): 1.239
- Displacement (%) (Gardos channel; 100 nM, red cells): 6.0%
- 125I-ChTX Binding (Gardos channel; 500 nM, red cells): 1.134
- Displacement (%) (Gardos channel; 500 nM, red cells): 21.6%
- 125I-ChTX Binding (Gardos channel; 1 μM, red cells): 1.327
- 125I-ChTX Binding (Gardos channel; 5 μM, red cells): 1.016
- Displacement (%) (Gardos channel; 5 μM, red cells): 39.2%
- 125I-ChTX Binding (Gardos channel; 10 μM, red cells): 0.790
- Displacement (%) (Gardos channel; 10 μM, red cells): 72.9%
- Displacement of 125I-ChTX binding (in words) (Gardos channel; red cells): specifically displaces
- concentration at 6 day of CLT dosing (clinical; oral, 500 mg, Subject A): 1100 nM
- concentration at 6 day (wash-out) (clinical; oral, 500 mg, Subject A, Wash-out day 6): < 100 nM
- concentration at 10 day (wash-out) (clinical; oral, 500 mg, Subject A): < 100 nM
- concentration at 13 day (wash-out) (clinical; oral, 500 mg, Subject A): 0 nM
- concentration at 20 day (wash-out) (clinical; oral, 500 mg, Subject A): 0 nM
- concentration at 3 day of CLT dosing (clinical; oral, 500 mg, Subject B, CLT day 3): 800 nM
- concentration at 6 day of CLT dosing (clinical; oral, 500 mg, Subject B): 1350 nM
- concentration at 8 day (wash-out) (clinical; oral, 500 mg, Subject B, Wash-out day 8): < 100 nM
- concentration at 10 day (wash-out) (clinical; oral, 500 mg, Subject B): < 100 nM
- concentration at 13 day (wash-out) (clinical; oral, 500 mg, Subject B): 0 nM
- concentration at 20 day (wash-out) (clinical; oral, 500 mg, Subject B): 0 nM
- concentration at 3 day of CLT dosing (clinical; Subject A, CLT day 3, oral CLT 500 mg every twelve hours): 1100 nM
- IC50 (red cell Gardos channel): 720 ± 190 nM
- IC50 for inhibition of K+ transport relative to IC50 for displacement of 125I-ChTX (red cell Gardos channel): two to three fold lower
- concentration at which inhibition of K+ transport reached maximal levels (red cell Gardos channel): 10 µM
- % control (red cell Gardos channel; 1 nM): 125.3%
- flux (red cell Gardos channel; 1 nM): 1.444
- inhibition at 0.001 µM (red cell Gardos channel; 1 nM): -25.3%
- % control (red cell Gardos channel; 10 nM): 96.8%
- flux (red cell Gardos channel; 10 nM): 1.115
- inhibition at 0.01 µM (red cell Gardos channel; 10 nM): 3.2%
- % control (red cell Gardos channel; 100 nM): 82.6%
- flux (red cell Gardos channel; 100 nM): 0.952
- inhibition at 0.1 µM (red cell Gardos channel; 100 nM): 17.4%
- % control (red cell Gardos channel; 500 nM): 62.2%
- flux (red cell Gardos channel; 500 nM): 0.717
- inhibition at 0.5 µM (red cell Gardos channel; 500 nM): 37.8%
- % control (red cell Gardos channel; 1 μM): 37.9%
- flux (red cell Gardos channel; 1 μM): 0.437
- inhibition at 1 µM (red cell Gardos channel; 1 μM): > 50%
- % control (red cell Gardos channel; 5 μM): 21.7%
- flux (red cell Gardos channel; 5 μM): 0.25
- inhibition at 5 µM (red cell Gardos channel; 5 μM): 78.3%
- % control (red cell Gardos channel; 10 μM): 9.8%
- flux (red cell Gardos channel; 10 μM): 0.113
- inhibition at 10 µM (red cell Gardos channel; 10 μM): 90.2%
- inhibition of [3H]thymidine uptake versus controls [6]: about 60%
- inhibition of [3H]thymidine uptake versus controls [7]: about 50%
- melting point: 92 to 93.5 °C
- induction of hepatic microsomal cytochrome P450 [8]: does not induce
